Results as given in PubChem BioAssay (NCI).
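Step 1: Grow cells in 96-well plates. Step 2: Expose to compound for 48 hours at 5 concentrations. Step 3: Interpolate endpoints linearly; if unreached, use highest concentration. The concentration for 50% growth inhibition is given as GI50. At the TGI there is no net growth.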

What was measured:
Test in all cases: NCI anticancer screen, dose series, 48 h
[1] = test system: 786-0 renal
[2] = test system: A498 renal
[3] = test system: A549 NSCLC
[4] = test system: ACHN renal
[5] = test system: BT-549 breast
[6] = test system: CAKI-1 renal
[7] = test system: CCRF-CEM leukemia
[8] = test system: COLO 205 colon
[9] = test system: DU-145 prostate
[10] = test system: EKVX NSCLC
[11] = test system: HCC-2998 colon
[12] = test system: HCT-116 colon
[13] = test system: HCT-15 colon
[14] = test system: HL-60(TB) leukemia
[15] = test system: HOP-62 NSCLC
[16] = test system: HOP-92 NSCLC
[17] = test system: HS 578T breast
[18] = test system: HT29 colon
[19] = test system: IGROV1 ovarian
[20] = test system: K-562 leukemia
[21] = test system: KM12 colon
[22] = test system: LOX IMVI melanoma
[23] = test system: M14 melanoma
[24] = test system: MALME-3M melanoma
[25] = test system: MCF7 breast
[26] = test system: MDA-MB-231 breast
[27] = test system: MDA-MB-435
[28] = test system: MOLT-4 leukemia
[29] = test system: NCI-H23 lung
[30] = test system: NCI-H460 lung
[31] = test system: NCI-H522 lung
[32] = test system: NCI/ADR-RES ovarian
[33] = test system: OVCAR-3 ovarian
[34] = test system: OVCAR-4 ovarian
[35] = test system: OVCAR-5 ovarian
[36] = test system: OVCAR-8 ovarian
[37] = test system: PC-3 prostate
[38] = test system: RPMI-8226 leukemia
[39] = test system: RXF 393 renal
[40] = test system: SF-268 CNS
[41] = test system: SF-295 CNS
[42] = test system: SK-MEL-2 melanoma
[43] = test system: SK-MEL-28 melanoma
[44] = test system: SK-MEL-5 melanoma
[45] = test system: SK-OV-3 ovarian
[46] = test system: SN12C renal
[47] = test system: SNB-19 CNS
[48] = test system: SNB-75 CNS
[49] = test system: SR leukemia
[50] = test system: SW-620 colon
[51] = test system: T-47D breast
[52] = test system: TK-10 renal
[53] = test system: U251 CNS
[54] = test system: UACC-257 melanoma
[55] = test system: UACC-62 melanoma
[56] = test system: UO-31 renal

Cn1cncc1-c1c(F)cncc1NC(=O)c1c(N)nn2cc(F)cnc12
GI50 [1]: 338 nM | TGI [1]: > 100 µM | GI50 [2]: 526 nM | TGI [2]: 8.83 µM | GI50 [3]: 2270 nM | TGI [3]: > 100 µM | GI50 [4]: 422 nM | TGI [4]: > 100 µM | GI50 [5]: 838 nM | TGI [5]: 15.4 µM | GI50 [6]: 1450 nM | TGI [6]: 21.7 µM | GI50 [7]: 72.3 nM | TGI [7]: 22.8 µM | GI50 [8]: 5.68 µM | TGI [8]: > 100 µM | GI50 [9]: 803 nM | TGI [9]: 49.3 µM | GI50 [10]: 5.18 µM | TGI [10]: > 100 µM | GI50 [11]: 61.2 nM | TGI [11]: > 100 µM | GI50 [12]: 2070 nM | TGI [12]: 16.3 µM | GI50 [13]: 180 nM | TGI [13]: > 100 µM | GI50 [14]: 272 nM | TGI [14]: 717 nM | GI50 [15]: 5.21 µM | TGI [15]: > 100 µM | GI50 [16]: 4.43 µM | TGI [16]: 69.4 µM | GI50 [17]: 1210 nM | TGI [17]: 24.2 µM | GI50 [18]: 3.61 µM | TGI [18]: > 100 µM | GI50 [19]: 2540 nM | TGI [19]: 13.8 µM | GI50 [20]: 389 nM | TGI [20]: > 100 µM | GI50 [21]: 1520 nM | TGI [21]: > 100 µM | GI50 [22]: 238 nM | TGI [22]: 10.4 µM | GI50 [23]: 231 nM | TGI [23]: 91.4 µM | GI50 [24]: 5.16 µM | TGI [24]: 68.5 µM | GI50 [25]: 51.5 nM | TGI [25]: 56.4 µM | GI50 [26]: 4.72 µM | TGI [26]: > 100 µM | GI50 [27]: 933 nM | TGI [27]: > 100 µM | GI50 [28]: 203 nM | TGI [28]: 1100 nM | GI50 [29]: 93 nM | TGI [29]: 1340 nM | GI50 [30]: 1270 nM | TGI [30]: > 100 µM | GI50 [31]: 3.46 µM | TGI [31]: 19.8 µM | GI50 [32]: 1450 nM | TGI [32]: > 100 µM | GI50 [33]: 407 nM | TGI [33]: 2290 nM | GI50 [34]: 1270 nM | TGI [34]: 14.4 µM | GI50 [35]: 13 µM | TGI [35]: > 100 µM | GI50 [36]: 5.83 µM | TGI [36]: > 100 µM | GI50 [37]: 3.41 µM | TGI [37]: > 100 µM | GI50 [38]: 1530 nM | TGI [38]: 9.4 µM | GI50 [39]: 278 nM | TGI [39]: 16.8 µM | GI50 [40]: 4.04 µM | TGI [40]: 46.2 µM | GI50 [41]: 625 nM | TGI [41]: 6.61 µM | GI50 [42]: 75.1 nM | TGI [42]: 397 nM | GI50 [43]: 6.52 µM | TGI [43]: 86.8 µM | GI50 [44]: 1230 nM | TGI [44]: 2480 nM | GI50 [45]: 743 nM | TGI [45]: 8.92 µM | GI50 [46]: 3.98 µM | TGI [46]: 37.6 µM | GI50 [47]: 5.2 µM | TGI [47]: > 100 µM | GI50 [48]: 6.5 µM | TGI [48]: 48.6 µM | GI50 [49]: 206 nM | TGI [49]: 2540 nM | GI50 [50]: 4.12 µM | TGI [50]: > 100 µM | GI50 [51]: 4.32 µM | TGI [51]: > 100 µM | GI50 [52]: 4.54 µM | TGI [52]: 83.7 µM | GI50 [53]: 4.48 µM | TGI [53]: > 100 µM | GI50 [54]: 20.9 µM | TGI [54]: > 100 µM | GI50 [55]: 2220 nM | TGI [55]: 6.9 µM | GI50 [56]: 303 nM | TGI [56]: 60.5 µM
